The source of these data is patent US10800786B2, “Bicyclic compounds as ATX inhibitors” (Hoffmann-La Roche Inc., priority 2015, dated 2020).

The IC50 is the concentration at which inhibition is half-maximal.

The target in one test is ATX (human His-tagged) (Homo sapiens (Human), UniProt Q13822). In words: Human ATX enzyme inhibition assay (fluorescence quenching, MR121 substrate). Type of test: biochemical.
Settings: not given
Here is the method: Human Atx Enzyme Inhibition Assay
Assay working solutions were made as follows:
Assay buffer (50 mM Tris-HCl, 140 mM NaCl, 5 mM KCl, 1 mM CaCl2, 1 mM MgCl2, 0.01% Triton-X-100, pH 8.0;
MR121 substrate solution: MR121 substrate stock solution (800 μM MR121 substrate in DMSO), diluted to 2-5× final concentration in assay buffer.
10 μL of MR121 substrate solution was added ([…] final concentration), mixed 30 times and then incubated for 15 minutes at 30° C.
On to `O=C(c1cc(OCC2CCOCC2)nc(C2CC2)c1)N1CC2=C(CC(C(=O)N3CCc4[nH]nnc4C3)C2)C1` [Example 4.01, [2-cyclopropyl-6-(oxan-4-ylmethoxy)pyridin-4-yl]-[5-(1,4,6,7-tetrahydrotriazolo[4,5-c]pyridine-5-carbonyl)-3,4,5,6-tetrahydro-1H-cyclopenta[c]pyrrol-2-yl]methanone], for which the IC50 came to 10 nM.

Staying with this test, now noted: 30 nM ATX, MR121 substrate, 30° C., pH 8.0; read-out: ATX IC50.
As for `Cn1c(=O)[nH]c2ccc(C(=O)N3CC4=C(CN(C(=O)c5cc(OCC6CCOCC6)nc(C6CC6)c5)C4)C3)cc21` [Example 1.01, 6-(5-(2-cyclopropyl-6-((tetrahydro-2H-pyran-4-yl)methoxy)isonicotinoyl)-1,2,3,4,5,6-hexahydropyrrolo[3,4-c]pyrrole-2-carbonyl)-1-methyl-1H-benzo[d]imidazol-2(3H)-one], the IC50 was 8 nM.
On the same count and under the same terms, in the case of `O=C(c1cc(OCC2CCOCC2)nc(C2CC2)c1)N1CC2=C(C1)CN(C(=O)N1CCc3c(n[nH]c3O)C1)C2` [Example 2.12, [2-cyclopropyl-6-(oxan-4-ylmethoxy)pyridin-4-yl]-[5-(3-hydroxy-2,4,5,7-tetrahydropyrazolo[3,4-c]pyridine-6-carbonyl)-1,3,4,6-tetrahydropyrrolo[3,4-c]pyrrol-2-yl]methanone] it was 441 nM; in that of `CC(C)(C)C(=O)Nc1cc(C(F)(F)F)cnc1COC(=O)N1CC2=C(C1)CN(C(=O)c1ccc3[nH]nnc3c1)C2` [Example 1.04, [3-(2,2-dimethylpropanoylamino)-5-(trifluoromethyl)pyridin-2-yl]methyl 2-(1H-benzotriazole-5-carbonyl)-1,3,4,6-tetrahydropyrrolo[3,4-c]pyrrole-5-carboxylate], 8 nM; in that of `CC(C)(C)C(=O)Nc1cc(C(F)(F)F)cnc1COC(=O)N1CC2=C(C1)CN(C(=O)[C@@H]1CCc3[nH]nnc3C1)C2` [Example 1.00, [3-(2,2-Dimethylpropanoylamino)-5-(trifluoromethyl)pyridin-2-yl]methyl 2-[(5R)-4,5,6,7-tetrahydro-1H-benzotriazole-5-carbonyl]-1,3,4,6-tetrahydropyrrolo[3,4-c]pyrrole-5-carboxylate], 7 nM.
Still for that read-out and setting: for `Cc1nnn(Cc2cc(C(F)(F)F)ccc2CCC(=O)N2CC3=C(C2)CN(C(=O)c2ccc4[nH]nnc4c2)C3)n1` [Example 1.06, 1-[5-(1H-benzotriazole-5-carbonyl)-1,3,4,6-tetrahydropyrrolo[3,4-c]pyrrol-2-yl]-3-[2-[(5-methyltetrazol-2-yl)methyl]-4-(trifluoromethyl)phenyl]propan-1-one] the value was 11 nM; for `O=C(c1cc(OCC2CCOCC2)nc(C2CC2)c1)N1CC2=C(C1)CN(C(=O)c1ccc3c(O)noc3c1)C2` [Example 1.09, [5-[2-cyclopropyl-6-(oxan-4-ylmethoxy)pyridine-4-carbonyl]-1,3,4,6-tetrahydropyrrolo[3,4-c]pyrrol-2-yl]-(3-hydroxy-1,2-benzoxazol-6-yl)methanone], 4 nM.
Turning to `O=C(c1cc(OCC2CCOCC2)nc(C2CC2)c1)N1CC2=C(C1)CN(C(=O)N1CCc3[nH]nnc3C1)C2` [Example 2.02, [2-cyclopropyl-6-(oxan-4-ylmethoxy)pyridin-4-yl]-[5-(1,4,6,7-tetrahydrotriazolo[4,5-c]pyridine-5-carbonyl)-1,3,4,6-tetrahydropyrrolo[3,4-c]pyrrol-2-yl]methanone], the IC50 amounted to 6 nM.
Still for that read-out and setting: in the case of `O=C(OCc1ccc(OC(F)(F)F)cc1)N1CC2=C(C1)CN(C(=O)c1ccc3[nH]nnc3c1)C2` [Example 1.05, 4-(trifluoromethoxy)benzyl 5-(1H-benzo[d][1,2,3]triazole-5-carbonyl)-3,4,5,6-tetrahydropyrrolo[3,4-c]pyrrole-2(1H)-carboxylate] it was 3 nM.
On the same count and under the same terms, for `O=C(c1cc(OCC2CCOCC2)nc(C2CC2)c1)N1CC2=C(C1)CN(C(=O)N1CCc3onc(O)c3C1)C2` [Example 2.13, [2-cyclopropyl-6-(oxan-4-ylmethoxy)pyridin-4-yl]-[5-(3-hydroxy-6,7-dihydro-4H-[1,2]oxazolo[4,5-c]pyridine-5-carbonyl)-1,3,4,6-tetrahydropyrrolo[3,4-c]pyrrol-2-yl]methanone] the value was 97 nM; for `NS(=O)(=O)C1(F)CCN(C(=O)N2CC3=C(CN(C(=O)c4cc(OCC5CCOCC5)nc(C5CC5)c4)C3)C2)CC1` [Example 6.00, 1-[2-[2-Cyclopropyl-6-(oxan-4-ylmethoxy)pyridine-4-carbonyl]-1,3,4,6-tetrahydropyrrolo[3,4-c]pyrrole-5-carbonyl]-4-fluoropiperidine-4-sulfonamide], 3 nM.
Same read-out and setting: in the case of `CC(C)(C)C(=O)Nc1cc(C(F)(F)F)cnc1COC(=O)N1CC2=C(C1)CN(C(=O)N1CCc3[nH]nnc3C1)C2` [Example 2.00, [3-(2,2-Dimethylpropanoylamino)-5-(trifluoromethyl)pyridin-2-yl]methyl 2-(1,4,6,7-tetrahydrotriazolo[4,5-c]pyridine-5-carbonyl)-1,3,4,6-tetrahydropyrrolo[3,4-c]pyrrole-5-carboxylate] it was 5 nM; in that of `CC(C)(C)C(=O)Nc1cc(Cl)c(Cl)nc1COC(=O)N1CC2=C(C1)CN(C(=O)c1ccc3[nH]nnc3c1)C2` [Example 1.08, [5,6-dichloro-3-(2,2-dimethylpropanoylamino)pyridin-2-yl]methyl 2-(1H-benzotriazole-5-carbonyl)-1,3,4,6-tetrahydropyrrolo[3,4-c]pyrrole-5-carboxylate], 7 nM.
For `CC(C)(C)C(=O)Nc1cc(C(F)(F)F)cnc1COC(=O)N1CCC2=C(CCN(C(=O)c3ccc4[nH]nnc4c3)C2)C1` [Example 1.07, [3-(2,2-dimethylpropanoylamino)-5-(trifluoromethyl)pyridin-2-yl]methyl 6-(1H-benzotriazole-5-carbonyl)-1,3,4,5,7,8-hexahydro-2,6-naphthyridine-2-carboxylate], the IC50 amounted to 17 nM.
Regarding `O=C(c1cc(OCC2CCOCC2)nc(C2CC2)c1)N1CC2=C(C1)CN(C(=O)c1ccc3[nH]nnc3c1)C2` [Example 1.03], the IC50 stood at 5 nM.
On the same count and under the same terms, in the case of `O=C(c1cc(OCC2CCOCC2)nc(C2CC2)c1)N1CC2=C(CN(Cc3ccc4[nH]c(=O)oc4c3)C2)C1` [Example 5.00, 6-[[5-[2-Cyclopropyl-6-(oxan-4-ylmethoxy)pyridine-4-carbonyl]-1,3,4,6-tetrahydropyrrolo[3,4-c]pyrrol-2-yl]methyl]-3H-1,3-benzoxazol-2-one] it was 1 nM.
With `O=C1NS(=O)(=O)c2cc(C(=O)N3CC4=C(CN(C(=O)c5cc(OCC6CCOCC6)nc(C6CC6)c5)C4)C3)ccc21` [Example 1.10, 6-[5-[2-cyclopropyl-6-(oxan-4-ylmethoxy)pyridine-4-carbonyl]-1,3,4,6-tetrahydropyrrolo[3,4-c]pyrrole-2-carbonyl]-1,1-dioxo-1,2-benzothiazol-3-one], the IC50 was found to be 13 nM.
Same read-out and setting: for `NS(=O)(=O)C1CCN(C(=O)N2CC3=C(CN(C(=O)c4cc(OCC5CCOCC5)nc(C5CC5)c4)C3)C2)CC1` [Example 2.04, 1-[2-[2-cyclopropyl-6-(oxan-4-ylmethoxy)pyridine-4-carbonyl]-1,3,4,6-tetrahydropyrrolo[3,4-c]pyrrole-5-carbonyl]piperidine-4-sulfonamide] the value was 5.5 nM; for `O=C(OCc1c[nH]nn1)N1CC2=C(C1)CN(C(=O)c1cc(OCC3CCOCC3)nc(C3CC3)c1)C2` [Example 3.00, (1H-1,2,3-Triazol-4-yl)methyl 5-(2-cyclopropyl-6-((tetrahydro-2H-pyran-4-yl)methoxy)isonicotinoyl)-3,4,5,6-tetrahydropyrrolo[3,4-c]pyrrole-2(1H)-carboxylate], 36 nM; for `NS(=O)(=O)C1CCN(C(=O)C2CC3=C(C2)CN(C(=O)c2cc(OCC4CCOCC4)nc(C4CC4)c2)C3)CC1` [Example 4.00, 1-[2-[2-Cyclopropyl-6-(oxan-4-ylmethoxy)pyridine-4-carbonyl]-3,4,5,6-tetrahydro-1H-cyclopenta[c]pyrrole-5-carbonyl]piperidine-4-sulfonamide], 11 nM.
On the same count and under the same terms, for `O=C1NC(=O)N2CCN(C(=O)N3CC4=C(CN(C(=O)c5cc(OCC6CCOCC6)nc(C6CC6)c5)C4)C3)CC12` (centres unmarked) [Example 2.14, 7-[2-[2-cyclopropyl-6-(oxan-4-ylmethoxy)pyridine-4-carbonyl]-1,3,4,6-tetrahydropyrrolo[3,4-c]pyrrole-5-carbonyl]-5,6,8,8a-tetrahydroimidazo[1,5-a]pyrazine-1,3-dione] the value was 122 nM.
On the same count and under the same terms, for `O=C(c1cc(OCC2CCOCC2)nc(C2CC2)c1)N1CC2=C(C1)CN(C(=O)N1CCc3c(cn[nH]c3=O)C1)C2` [Example 2.08, 6-[2-[2-cyclopropyl-6-(oxan-4-ylmethoxy)pyridine-4-carbonyl]-1,3,4,6-tetrahydropyrrolo[3,4-c]pyrrole-5-carbonyl]-2,5,7,8-tetrahydropyrido[3,4-d]pyridazin-1-one] the value was 10 nM.
In the case of `O=C(c1cc(OCC2CCOCC2)nc(C2CC2)c1)N1CC2=C(C1)CN(C(=O)[C@@H]1CCc3[nH]nnc3C1)C2` [Example 1.02, [2-cyclopropyl-6-(oxan-4-ylmethoxy)pyridin-4-yl]-[5-[(5R)-4,5,6,7-tetrahydro-1H-benzotriazole-5-carbonyl]-1,3,4,6-tetrahydropyrrolo[3,4-c]pyrrol-2-yl]methanone], the IC50 was 5 nM.
